Assays:
[1] = target: T1, Lactobacillus pentosus NADH oxidase (Lp Nox), wild type, SEQ ID NO:1 (Lactiplantibacillus pentosus, UniProt A0A0U3FIG2); conditions: role: cofactor; oxidation of MNAH and BNAH by wild-type Lp Nox; cited from earlier work
T1 sequence (A0A0U3FIG2 1-450): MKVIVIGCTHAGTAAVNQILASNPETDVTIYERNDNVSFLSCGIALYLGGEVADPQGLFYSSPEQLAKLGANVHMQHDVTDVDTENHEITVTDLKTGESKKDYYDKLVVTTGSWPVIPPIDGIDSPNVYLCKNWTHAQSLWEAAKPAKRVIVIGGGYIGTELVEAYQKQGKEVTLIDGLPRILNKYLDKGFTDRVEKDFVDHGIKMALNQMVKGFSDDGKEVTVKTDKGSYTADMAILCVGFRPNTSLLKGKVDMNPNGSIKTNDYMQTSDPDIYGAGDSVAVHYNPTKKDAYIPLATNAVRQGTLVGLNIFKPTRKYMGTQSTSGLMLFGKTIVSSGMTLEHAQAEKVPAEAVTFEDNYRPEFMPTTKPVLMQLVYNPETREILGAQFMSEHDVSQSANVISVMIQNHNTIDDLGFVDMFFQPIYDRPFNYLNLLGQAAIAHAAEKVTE

[2] = target: T2, Lactobacillus pentosus NADH oxidase (Lp Nox) variant LP-7 (I158S-D177W-V240L), SEQ ID NO:3 (Lactiplantibacillus pentosus, UniProt A0A0U3FIG2, D177W/I158S/V240L); assay: Lp Nox enzymatic kinetics, cofactor oxidation at 340 nm, variant LP-7; assay type: biochemical; conditions: role: cofactor; apparent; 50 mM Tris-HCl pH 7.0, 37 °C; cofactor 0 to 2 mM
T2 construct: variant LP-7
T2 sequence (A0A0U3FIG2 1-450 I158S/D177W/V240L): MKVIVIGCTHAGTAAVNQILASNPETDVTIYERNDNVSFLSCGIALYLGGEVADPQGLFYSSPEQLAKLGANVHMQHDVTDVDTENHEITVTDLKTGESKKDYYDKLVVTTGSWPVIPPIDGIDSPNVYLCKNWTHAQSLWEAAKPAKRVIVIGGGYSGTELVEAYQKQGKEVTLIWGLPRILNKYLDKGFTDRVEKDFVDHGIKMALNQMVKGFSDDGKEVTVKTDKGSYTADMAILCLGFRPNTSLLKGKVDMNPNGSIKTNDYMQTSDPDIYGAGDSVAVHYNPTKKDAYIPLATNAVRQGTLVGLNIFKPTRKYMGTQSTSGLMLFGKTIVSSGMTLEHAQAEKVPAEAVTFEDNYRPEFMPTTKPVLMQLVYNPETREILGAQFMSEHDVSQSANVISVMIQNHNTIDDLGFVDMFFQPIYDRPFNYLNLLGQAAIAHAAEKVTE
Procedure: (§1) Protein Expression and Purification. Lp Nox wild type or variants (see Table 1) are expressed with E. coli BL21 (DE3) with plasmids inoculated in 2× YT media with 200 mg L^−1 ampicillin. Expression was carried out by inoculation of 20 mL 2× YT media supplied with antibiotics and an overnight culture incubated at 30 °C, 250 RPM with an OD600nm of 0.072. Cells were grown at 37 °C in 50 mL conical tubes, and the cultures were induced with 0.5 mM IPTG at an OD600nm of 0.6-1.0. The 20 mL culture was then incubated at 27 °C and 250 RPM for 24 h. After 24 h, cells were harvested for protein extraction (centrifugation at 4 °C, 3000 RPM, 20 min). Cell pellets were resuspended in Zymo His-Binding buffer (Zymo Research Corporation) supplied with 0.15 mM FAD, 1 μL/mL DNase (Sigma Aldrich) and 1 mM InSolution [COMPOUND LEFT OUT] (Sigma Aldrich). The resuspended cell mixture was added to 0.5 mL of 0.1 mm glass beads (Biospec) and homogenized using a benchtop homogenizer (MP Biomedicals). Cell debris was separated from the crude extract by centrifugation at 4 °C and 15,000 RPM for 5 min. Protein purification was performed using His-Spin Protein Miniprep (Zymo Research Corporation) according to the manufacturer's instructions. The concentrations of purified protein were quantified by a Bradford assay using BSA as a standard. Purified protein was stored in aliquots with 20% (v/v) glycerol at −80 °C.
(§2) NMNH generation. NMNH generation was performed in 20 mL reaction volumes in a 50 ml conical tube containing 200 mM Tris-Cl at pH 8.0, 100 mM sodium chloride, 3 mM potassium chloride, 200 mM glucose, and 20 m MNMN^+. The reaction was initiating by spiking 500 ng of purified Bacillus subtilis glucose dehydrogenase I195R8. The reaction was incubated at 30 °C until reaction progression stopped, approximately 6 h. Reaction progression was monitored by observing the increase in light absorption at 340 nm, corresponding to the reduction of NMN^+ to NMNH. Then, the solution was filtered through a 15 kD cutoff filter to remove the protein. To purify the NMNH, the flowthrough was mixed with HPLC-grade acetonitrile to a final concentration of 70% acetonitrile, and the solution was passed through a Phenomenex Strata NH2 (2 g/12 mL, 55 μm, 70 Å) solid phase extraction column. The column was washed twice with 4 mL of 70:30 acetonitrile:water, then twice with 4 mL of 50:50 acetonitrile:water, twice with 4 mL of 30:70 acetonitrile:water, twice with 4 mL of nanopurified water, and finally twice with 4 mL of methanol. To elute the NMNH from the column, 2 mL of a solution containing 50:50 ammonium hydroxide:methanol was added to the column and incubated for 3 minutes before eluting. The elution step was repeated until no NMNH remained in the flow through, as monitored by light absorption at 340 nm. The elution fractions containing NMNH were pooled and aliquoted in 1 mL volumes into clean tubes. The solutions were dried over air and stored at −80 °C until use.
(§3) Lp Nox Enzymatic Assays and Kinetic study with NMNH, NAD(P) H. The Lp Nox activity (see FIG. 4A) was determined by the change in light absorption at 340 nm at 37 °C in 50 mM Tris-Cl buffer pH 7.0. The reactions were started by adding the purified protein to the prewarmed 37 °C assay mixture containing 0.3 mM of respective cofactor. The absorbance change at 340 nm for NAD(P) H and NMNH was detected using a SpectraMax M3 microplate reader. For kinetics parameter determination (see Table 2), cofactor concentrations were varied from 0 to 2 mM and the results were fitted to the standard Michaelis-Menten equation or Lineweaver-Burk equation to acquire catalytic efficiencies (kcat/Km) when the cofactor concentration tested could not saturate the enzyme activity or during the presence of substrate inhibition. Cofactor concentration over 2 mM could not be measured accurately on M3 spectrometer due to detector absorbance saturation at 340 nm.

[3] = target: T3, Lactobacillus pentosus NADH oxidase (Lp Nox) variant LP-3 (I158S-D177W-G178E-V240L), SEQ ID NO:6 (Lactiplantibacillus pentosus, UniProt A0A0U3FIG2, D177W/G178E/I158S/V240L); assay: Lp Nox enzymatic kinetics, cofactor oxidation at 340 nm, variant LP-3; assay type: biochemical; conditions: role: cofactor; apparent; 50 mM Tris-HCl pH 7.0, 37 °C; cofactor 0 to 2 mM
T3 construct: variant LP-3
T3 sequence (A0A0U3FIG2 1-450 I158S/D177W/G178E/V240L): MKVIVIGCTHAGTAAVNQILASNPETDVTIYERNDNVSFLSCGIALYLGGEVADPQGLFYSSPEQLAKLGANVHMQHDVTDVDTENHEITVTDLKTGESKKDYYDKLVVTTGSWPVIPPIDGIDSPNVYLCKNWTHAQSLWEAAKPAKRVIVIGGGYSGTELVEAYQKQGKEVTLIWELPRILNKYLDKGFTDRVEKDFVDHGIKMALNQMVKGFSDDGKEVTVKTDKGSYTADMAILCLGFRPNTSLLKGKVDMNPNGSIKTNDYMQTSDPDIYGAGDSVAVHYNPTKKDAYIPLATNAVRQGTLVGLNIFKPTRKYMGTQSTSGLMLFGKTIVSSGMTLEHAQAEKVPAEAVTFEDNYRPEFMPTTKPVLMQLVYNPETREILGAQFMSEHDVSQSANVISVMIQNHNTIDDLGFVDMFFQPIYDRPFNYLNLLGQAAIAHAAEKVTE
Procedure: as §1, §2, §3

[4] = target: T4, Lactobacillus pentosus NADH oxidase (Lp Nox) variant LP-3-EP (I158S-D177W-G178E-V240L-P362H-V395L), SEQ ID NO:7 (Lactiplantibacillus pentosus, UniProt A0A0U3FIG2, D177W/G178E/I158S/P362H/V240L/V395L); assay: Lp Nox enzymatic kinetics, cofactor oxidation at 340 nm, variant LP-3-EP; assay type: biochemical
T4 construct: variant LP-3-EP
T4 sequence (A0A0U3FIG2 1-450 I158S/D177W/G178E/V240L/P362H/V395L): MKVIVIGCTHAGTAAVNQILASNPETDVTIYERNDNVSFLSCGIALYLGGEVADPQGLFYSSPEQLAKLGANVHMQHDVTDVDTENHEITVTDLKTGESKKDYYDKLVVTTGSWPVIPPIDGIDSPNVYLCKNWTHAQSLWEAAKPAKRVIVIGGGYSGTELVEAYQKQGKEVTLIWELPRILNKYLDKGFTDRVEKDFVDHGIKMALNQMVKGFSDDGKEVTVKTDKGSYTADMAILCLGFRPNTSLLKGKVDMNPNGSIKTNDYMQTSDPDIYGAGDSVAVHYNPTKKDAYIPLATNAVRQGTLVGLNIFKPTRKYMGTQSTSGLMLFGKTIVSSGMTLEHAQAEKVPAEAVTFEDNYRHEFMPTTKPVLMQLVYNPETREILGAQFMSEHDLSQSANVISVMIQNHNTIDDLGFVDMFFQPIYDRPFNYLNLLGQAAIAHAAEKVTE
Procedure: as §1, §2, §3

Row | Structure (SMILES) | catalytic efficiencies (in words) [1] | Km [2] [µM] | kcat [2] [s⁻¹] | kcat/Km [2] [M⁻¹ s⁻¹] | Km [3] [µM] | kcat [3] [s⁻¹] | kcat/Km [3] [M⁻¹ s⁻¹] | kcat/Km ([4]; role: cofactor, 50 mM Tris-HCl pH 7.0, 37 °C, estimated based on kinetics under lower cofactor concentrations before inhibition was observed) | inhibition of LP 3-EP activity by the cofactor ([4]; role: inhibitor (cofactor inhibition), above 1 mM NADH or NADPH, fits poorly with the substrate inhibition rate equation)
1 | NC(=O)C1=CN(Cc2ccccc2)C=CC1 [BNAH, 1-Benzyl-1,4-dihydronicotinamide] | low catalytic efficiencies |  |  |  |  |  |  |  | 
2 | CN1C=CCC(C(N)=O)=C1 [MNAH, N-methyl-1,4-dihydronicotinamide] | low catalytic efficiencies |  |  |  |  |  |  |  | 
3 | NC(=O)C1=CN([C@@H]2O[C@H](COP(=O)(O)OP(=O)(O)OC[C@H]3O[C@@H](n4cnc5c(N)ncnc54)[C@H](O)[C@@H]3O)[C@@H](O)[C@H]2O)C=CC1 [NADH, nicotinamide adenine dinucleotide] |  | 1700 ± 200 | 47 ± 4 | 28000 ± 1000 | 1900 ± 40 | 31 ± 1 | 17000 ± 1000 | 49 ± 2.0^c mM^−1s^−1 | strongly inhibited
